Source: article PMC10454678, “Synthesis of hydroxy benzoin/benzil analogs and investigation of their antioxidant, antimicrobial, enzyme inhibition, and cytotoxic activities” (Turkish Journal of Chemistry, 2021)
In brackets after ≈: the same amount, converted by molar mass.

What was measured:
[1] = system: Escherichia coli ATCC 25922; experiment: MIC, microdilution, E. coli; type: cell-based; details: Gram (-); Mueller-Hinton broth, 18-24 h, 36 °C
[2] = system: Yersinia pseudotuberculosis ATCC911; experiment: microbe, parasite or virus in culture; type: cell-based; details: Gram (-); Mueller-Hinton broth, 18-24 h, 36 °C
[3] = system: Pseudomonas aeruginosa ATCC27853; experiment: MIC, microdilution, P. aeruginosa; type: cell-based; details: Gram (-); Mueller-Hinton broth, 18-24 h, 36 °C
[4] = system: Staphylococcus aureus ATCC25923; experiment: MIC, microdilution, S. aureus; type: cell-based; details: Gram (+); Mueller-Hinton broth, 18-24 h, 36 °C
[5] = system: Streptococcus mutans RSKK07038; experiment: MIC, microdilution, S. mutans; type: cell-based; details: Gram (+); BHI broth, 72 h, 36 °C
[6] = system: Enterococcus faecalis ATCC29212; experiment: MIC, microdilution, E. faecalis; type: cell-based; details: Gram (+); Mueller-Hinton broth, 18-24 h, 36 °C
Bacillus cereus Roma709 = experiment: MIC, microdilution, B. cereus; type: cell-based; details: Gram (+); Mueller-Hinton broth, 18-24 h, 36 °C
[7] = system: Mycobacterium smegmatis ATCC607; experiment: MIC, microdilution, M. smegmatis; type: cell-based; details: Tub.; BHI broth, 72 h, 36 °C
[8] = system: Candida albicans ATCC60193; experiment: MIC, microdilution, C. albicans; type: cell-based; details: fungus; YEPD broth, 48 h, 36 °C
acetylcholinesterase = acetylcholinesterase (Homo sapiens, UniProt P22303); experiment: biochemical; details: Tris-HCl pH 8.0, 25 °C, 405 nm; for IC50: read-out: AChE IC50 (converted)
Chain of acetylcholinesterase (P22303 32-614, species assumed): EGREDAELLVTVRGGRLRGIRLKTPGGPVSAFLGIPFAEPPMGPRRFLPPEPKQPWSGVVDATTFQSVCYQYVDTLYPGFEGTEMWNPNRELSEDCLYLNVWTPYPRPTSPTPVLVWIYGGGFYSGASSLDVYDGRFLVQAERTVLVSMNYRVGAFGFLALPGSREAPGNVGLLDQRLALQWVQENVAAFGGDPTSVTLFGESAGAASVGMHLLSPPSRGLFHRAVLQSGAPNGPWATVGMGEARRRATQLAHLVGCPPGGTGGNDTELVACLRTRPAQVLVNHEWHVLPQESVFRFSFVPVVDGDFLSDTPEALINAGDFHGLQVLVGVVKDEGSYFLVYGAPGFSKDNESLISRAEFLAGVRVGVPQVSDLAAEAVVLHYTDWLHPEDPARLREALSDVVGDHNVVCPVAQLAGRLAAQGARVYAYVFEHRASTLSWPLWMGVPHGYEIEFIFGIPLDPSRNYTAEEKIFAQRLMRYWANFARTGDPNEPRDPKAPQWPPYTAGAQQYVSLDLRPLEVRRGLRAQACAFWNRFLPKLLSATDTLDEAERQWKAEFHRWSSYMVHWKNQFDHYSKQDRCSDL

butyrylcholinesterase = butyrylcholinesterase (Homo sapiens, UniProt P06276); experiment: biochemical; details: Tris-HCl pH 8.0, 25 °C, 405 nm; for IC50: read-out: BChE IC50 (converted)
Chain of butyrylcholinesterase (P06276 29-602): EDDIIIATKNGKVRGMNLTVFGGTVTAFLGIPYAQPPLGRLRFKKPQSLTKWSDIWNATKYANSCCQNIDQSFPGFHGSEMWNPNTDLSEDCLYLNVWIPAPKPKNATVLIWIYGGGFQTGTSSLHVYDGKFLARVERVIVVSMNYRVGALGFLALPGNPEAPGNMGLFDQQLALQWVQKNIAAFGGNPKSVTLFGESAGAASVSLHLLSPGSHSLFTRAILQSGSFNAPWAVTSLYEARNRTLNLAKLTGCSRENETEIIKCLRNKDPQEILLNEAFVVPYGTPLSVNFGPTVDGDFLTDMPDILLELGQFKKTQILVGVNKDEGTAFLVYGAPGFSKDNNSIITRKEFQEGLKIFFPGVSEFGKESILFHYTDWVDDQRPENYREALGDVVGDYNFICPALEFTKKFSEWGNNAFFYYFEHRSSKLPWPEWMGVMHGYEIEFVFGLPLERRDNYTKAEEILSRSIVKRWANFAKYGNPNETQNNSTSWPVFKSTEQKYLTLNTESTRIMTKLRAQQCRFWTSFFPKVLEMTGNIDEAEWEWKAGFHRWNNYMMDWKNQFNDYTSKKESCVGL

tyrosinase = tyrosinase (Agaricus bisporus, UniProt C7FF04); experiment: Tyrosinase inhibition (dopachrome method); type: biochemical; details: L-DOPA substrate, pH 6.8, 25 °C, 492 nm
Chain of tyrosinase (C7FF04 1-392): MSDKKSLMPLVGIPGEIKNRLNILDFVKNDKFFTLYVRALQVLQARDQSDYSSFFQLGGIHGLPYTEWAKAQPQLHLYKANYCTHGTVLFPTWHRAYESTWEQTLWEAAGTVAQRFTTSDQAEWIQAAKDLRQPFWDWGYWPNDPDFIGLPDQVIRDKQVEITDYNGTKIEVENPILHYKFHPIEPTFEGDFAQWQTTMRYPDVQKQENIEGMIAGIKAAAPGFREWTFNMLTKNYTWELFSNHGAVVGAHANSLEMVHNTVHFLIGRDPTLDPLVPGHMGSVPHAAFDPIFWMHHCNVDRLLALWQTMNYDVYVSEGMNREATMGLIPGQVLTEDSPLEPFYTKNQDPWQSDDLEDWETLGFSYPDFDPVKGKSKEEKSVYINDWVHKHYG

α-amylase = α-amylase (Sus scrofa, UniProt P00690); experiment: α-Amylase inhibition (Caraway-Somogyi I2/KI method); type: biochemical; details: starch, pH 6.9, 37 °C, 630 nm
Chain of α-amylase (P00690 16-511): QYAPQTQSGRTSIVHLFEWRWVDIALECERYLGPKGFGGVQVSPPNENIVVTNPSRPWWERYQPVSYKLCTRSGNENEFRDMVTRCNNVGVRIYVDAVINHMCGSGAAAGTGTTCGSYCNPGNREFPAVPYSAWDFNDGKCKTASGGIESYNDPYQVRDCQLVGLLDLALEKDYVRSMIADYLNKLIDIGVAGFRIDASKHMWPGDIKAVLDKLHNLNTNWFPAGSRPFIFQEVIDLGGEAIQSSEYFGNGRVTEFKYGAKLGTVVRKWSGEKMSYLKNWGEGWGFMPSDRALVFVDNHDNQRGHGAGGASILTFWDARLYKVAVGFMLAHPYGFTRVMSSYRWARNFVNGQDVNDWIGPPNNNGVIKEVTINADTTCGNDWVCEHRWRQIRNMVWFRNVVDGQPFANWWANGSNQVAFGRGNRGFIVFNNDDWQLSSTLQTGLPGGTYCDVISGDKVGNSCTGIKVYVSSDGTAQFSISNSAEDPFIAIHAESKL

α-glucosidase = experiment: α-Glucosidase inhibition; type: biochemical; details: PNPG, pH 6.8, 37 °C, 400 nm
Protocol: It was incubated at 37 °C for 15 min. Similarly, an enzyme-free blank was prepared. The reaction was stopped when sodium carbonate (50 μL, 0.2 M) was added.

[9] = DPPH radical scavenging activity; details: 0.1 mM DPPH, 50 min dark, 517 nm
[10] = Copper ions reducing activity (CUPRAC); details: Trolox equivalents; 30 min dark, room temperature, 450 nm
[11] = Ferric reducing antioxidant power (FRAP) assay; details: Trolox equivalents, compounds 2 mg/mL, 30 °C 30 min, 595 nm
[12] = system: human retinal normal cell line (RPE); experiment: MTT cell proliferation, RPE; details: MTT, 24 h incubation
[13] = system: human cervical cancer cell line (HeLa); experiment: MTT cell proliferation, HeLa; details: MTT, 24 h incubation
[14] = system: Paenibacillus larvae DSM7030; experiment: MIC, microdilution, P. larvae; type: cell-based; details: Gram (+) nonpathogenic spore forming
[15] = system: Bacillus subtilis ATCC1266; experiment: MIC, microdilution, B. subtilis; type: cell-based; details: Gram (+) nonpathogenic spore forming

Row | Molecule | Tyrosinase IC50 (tyrosinase) [mg/L] | α-Amylase IC50 (α-amylase) [mg/L] | α-Glucosidase IC50 (α-glucosidase) [mg/L] | DPPH radical scavenging capacity (SC50) [9] [mg/mL] | CUPRAC, copper reducing antioxidant power [10] [μg/mL trolox/gram DW] | FRAP, the iron reducing antioxidant power [11] [μg/mL trolox/gram DW] | MIC [14] [mg/L] | MIC [15] [mg/L] | IC50 (acetylcholinesterase) [µM] | IC50 (butyrylcholinesterase) [µM] | also measured
1 | 2-Hydroxy-1-(3,5-dihydroxyphenyl)-2-(3-hydroxyphenyl)ethanone and 2-Hydroxy-1-(3-hydroxyphenyl)-2-(3,5-dihydroxyphenyl)ethanone [6a+b] | 25.45 | 230.76 | 76.53 | 9.48 ± 0.3 | 506.67 ± 17.3 | 2237 ± 58.3 | – | – | – | – | MIC Ec [1]: 103 mg/L; MIC Yp [2]: 103 mg/L; MIC Pa [3]: 52 mg/L; MIC Sa [4]: 12 mg/L; MIC Sm [5]: 12 mg/L; MIC Ef [6]: 24 mg/L; MIC Bc (Bacillus cereus Roma709): 24 mg/L; MIC Ms [7]: 12 mg/L; MIC Ca [8]: 103 mg/L; AChE IC50 (acetylcholinesterase): >1000 mg/L; BChE IC50 (butyrylcholinesterase): 592.92 mg/L; FRAP, the iron reducing antioxidant power ([11]; listed as 6): 2237±58.3 μg/mL trolox/gram DW
2 | 2-Hydroxy-1-(3-O- β -D-glucopyranosylphenyl)-2-(3-hydroxyphenyl)-ethanone; 2-Hydroxy-1-(3-hydroxyphenyl)-2-(3-O- β -D-glucopyranosylphenyl)ethanone [18a+b] | >1000 | >1000 | >1000 | 12.11 ± 0.43 | 385.80 ± 37.12 | 2743.75 ± 25.20 | – | – | – | – | GI50 RPE normal cell line [12]: 1.90 mg/L; IC50 RPE normal cell line [12]: 83.81 mg/L; GI50 HeLa cell line [13]: 2.23 mg/L; IC50 HeLa cell line [13]: 104.49 mg/L
3 | O=C(C(=O)c1cccc(OC2O[C@H](CO)[C@@H](O)[C@H](O)[C@H]2O)c1)c1ccccc1 (stereo partly drawn) [Compound 21, 1-(3-O-β -D-Glucopyranosylphenyl)-2-phenylethane-1,2-dione] | – | – | >1000 | 36.94 ± 1.71 | 109.94 ± 19.42 | 1981.25 ± 28.33 | 12 to 27 (≈ 30.9 to 69.5 µM) | 12 to 27 (≈ 30.9 to 69.5 µM) | > 2570 | > 2570 | –
4 | O=C(C(=O)c1ccc(OC2O[C@H](CO)[C@@H](O)[C@H](O)[C@H]2O)cc1)c1ccccc1 (stereo partly drawn) [Compound 22, 1-(4-O-β -D-Glucopyranosylphenyl)-2-phenylethane-1,2-dione] | – | – | 212.24 | 47.54 ± 1.05 | 248.97 ± 34.06 | 1845.42 ± 41.36 | 12 to 27 (≈ 30.9 to 69.5 µM) | 12 to 27 (≈ 30.9 to 69.5 µM) | 342 | 1360 | –
